Reference: ChEMBL document CHEMBL1147318, “Inhibitory Substances from Myriophyllum brasiliense on Growth of Blue-Green Algae” (J Nat Prod, 1989)
The source made the active and inactive calls. The rule behind the calls is not given here.

What was measured:
Type in all cases: functional, organism-based
[1] = system: Dolichospermum flos-aquae; assay: Antialgal activity against Anabaena flos-aquae NIES 73 after 48 hrs by fluorophotometric method
Microcystis aeruginosa [2] = assay: Antialgal activity against Microcystis aeruginosa NIES 44 after 24 hrs by fluorophotometric method
Microcystis aeruginosa [3] = assay: Antialgal activity against Microcystis aeruginosa NIES 44 up to 500 uM after 24 hrs by fluorophotometric method

Compound	IC50 [1]	IC50 (Microcystis aeruginosa [2])	Activity (Microcystis aeruginosa [3])
O=c1c(O)c(-c2ccc(O)c(O)c2)oc2cc(O)cc(O)c12 [QUERCETIN]	25 µM	12 µM	
OC[C@H]1OC(O)[C@H](O)[C@@H](O)[C@@H]1O (stereo partly drawn)			inactive
O=c1c(O[C@@H]2O[C@@H](CO)[C@H](O)[C@H]2O)c(-c2ccc(O)c(O)c2)oc2cc(O)cc(O)c12 [AVICULARIN]	28 µM	180 µM	
O=C(O[C@@H]1O[C@@H]2COC(=O)c3cc(O)c(O)c(O)c3-c3c(cc(O)c(O)c3O)C(=O)O[C@H]2[C@H](OC(=O)c2cc(O)c(O)c(O)c2)[C@H]1OC(=O)c1cc(O)c(O)c(O)c1)c1cc(O)c(O)c(O)c1 [EUGENIIN]	2.8 µM	1.6 µM	
C[C@@H]1O[C@@H](Oc2c(-c3ccc(O)c(O)c3)oc3cc(O)cc(O)c3c2=O)[C@H](O)[C@H](O)[C@H]1O [QUERCITRIN]	45 µM	9 µM	
O=C(O)c1cc(O)c(O)c(O)c1 [GALLIC ACID]	33 µM	19 µM	
O=C(O[C@@H]1[C@@H](OC(=O)c2cc(O)c(O)c(O)c2)[C@H](O)O[C@@H]2COC(=O)c3cc(O)c(O)c(O)c3-c3c(cc(O)c(O)c3O)C(=O)O[C@@H]12)c1cc(O)c(O)c(O)c1	9.5 µM	3.7 µM	
